The values that follow come from patent US8557816B2, “Aurora kinase modulators and method of use” (Amgen Inc., priority 2007, dated 2013).

In one experiment the test system is HeLa cells. The experiment is described as follows: HeLa cell 24 hr ploidy assay (DNA content). In kind it is cell-based. Here is the method: HeLa Cell 24 hr Ploidy Assay Protocol
The purpose of this assay is to evaluate the ability of selected individual compounds to induce Deoxyribonucleic acid (DNA) content (ploidy) in cells through failed cell division. Cell cycle analysis is a rapid and efficient way to evaluate the status of DNA content (ploidy) of a given cell. HeLa cells (1×10^4 HeLa cells/well) in 100 ul of media (MEM+10% FBS) were plated in 96-well plates (Packard View) and cultured for 24 hrs at 37° C. maintained in a 5% CO2 atmosphere. […] The compounds were serially diluted in DMSO (0.25% final concentration). The cells were fixed (3.7% Formaldehyde and 1% glutaraldehyde) and permeabilized (1×PBS with 1% BSA and 0.2% Triton X-100) in preparation for nuclear staining. The well plates were stained for 45 minutes at RT in the dark using Hoechest 33342 nuclear stain at 0.5 ug.ml (Stock of 10 mg/ml, Invitrogen, CA, Cat # H3570). The nuclear stain was removed by aspiration and the cells were washed with wash buffer. A Cellomics Array Scan Vti plate reader was used to acquire the DNA ploidy data of the cells using Cell Cycle bioapplication. Numbers for each of “valid cell count/well”, “% of 4N cells” and “% of >4Ncells” were calculated with the assistance of an Activity Base 5.1ca software and dose curves were generated using an XLFit software. With XLFit, final EC50 IP and EC50 transit values, as well as the Max and Min, were calculated for each curve.

The next experiment concerns the target T1, AuroraB (Homo sapiens, UniProt Q96GD4).
T1 construct: 20 μL of AuroraB FL H is for a final volume of 41 μL; His
Briefly: AuroraB Homogeneous Time Resolved Fluorescent (HTRF) kinase assay. The format is biochemical. In a few lines: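 Read-out is time-resolved FRET between europium anti-phospho-H3 antibody and streptavidin-APC, added in EDTA buffer to stop the reaction and equilibrated about 60 min (ex 320, em 615 and 655 nm). Preceding reaction: ~90 min, full-length enzyme, ATP, 0.1 μM biotin-Histone H3 substrate, Mg/Mn HEPES buffer pH 7.5.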

The target in the next experiment is T2, AuroraA-TPX2 (Homo sapiens, UniProt O14965).
T2 construct: 20 μL of AuroraA-TPX2 KD GST for a final volume of about 41 μL; GST
T2 sequence (O14965 133-383 limits assumed): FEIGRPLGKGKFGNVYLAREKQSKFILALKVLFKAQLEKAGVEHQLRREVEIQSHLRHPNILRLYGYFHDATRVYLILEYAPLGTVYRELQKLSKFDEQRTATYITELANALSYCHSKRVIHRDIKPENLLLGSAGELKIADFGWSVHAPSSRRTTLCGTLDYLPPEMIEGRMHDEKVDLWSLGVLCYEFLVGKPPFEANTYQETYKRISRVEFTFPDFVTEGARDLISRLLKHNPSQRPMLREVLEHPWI
T2 sequence (Q9ULW0 1-43 partner limits assumed): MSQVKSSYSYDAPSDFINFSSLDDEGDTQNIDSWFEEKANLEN
Briefly: AuroraA-TPX2 Homogeneous Time Resolved Fluorescent (HTRF) kinase assay. The format is biochemical. The essentials: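 HTRF read-out (Eu 615 nm to APC 655 nm) of phosphorylated biotin-PLK, detected with 0.02 nM europium anti-phosphoPLK antibody and 0.0005 mg/mL SA-APC after overnight equilibration.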
For orientation: TR-FRET usually uses a lanthanide donor and a delayed reading to cut background.

The test system of another experiment is HCT116 xenografts. The experiment is described as follows: HCT116 xenograft model (human colon carcinoma), tumor growth inhibition. The format is in vivo. The settings on record: p.o., athymic nude mice. Here is the method: Compounds of the present invention were evaluated in HCT116 xenografts, a human colon carcinoma model. […] These cells were grown as subcutaneous xenografts in female HSD (Harlan Sprague Dawley) athymic nude mice. Mice were implanted subcutaneously with 2×10^6 cells in matrigel on day 0. Treatment was initiated on day 10 with compounds of the invention at the indicated dosage p.o for 2 consecutive-days per week (intermittent schedule, such as 2 days on-5 days off) or 7-days (continuous schedule) per week, for a selected number of weeks. For example, in one study, animals were dosed with selected compound samples BID on an intermittent dosing paradigm of two days on and then 5 days off per week, for four weeks (four dosing cycles) at 15, 7.5, and 3.75 mg/kg. Tumor growth inhibition and body weights were measured throughout the study and compared to the vehicle control group. All groups were provided nutritional supplements on a daily basis throughout the study to maintain body weight. Terminal neutrophil counts were taken at the end of this study. Measures were made by ANOVA followed by Scheffe post hoc test using StatView software v5.0.1.
10 Flasks containing a total of 7.68×10^8 HCT116 tumor cells were harvested for tumor cell implantation. HCT 116 cells were re-suspended to a cell concentration of about 2×10^7 cells/ml in serum-free McCoys 5A media+50% matrigel. Cell viability was measured to be about 99.3%.
Female Athymic Nude mice approximately 14 weeks of age (Harlan Sprague Dawley) were used for the experiment. Mice were housed five per filter-capped cage in sterile housing in an environmentally controlled room (temperature 23±2° C., relative humidity 50±20%) on a 12-hr light/dark cycle. […] On Day 9, tumor-bearing mice were measured and randomized into five groups (n=10). […] During the dosing period, mouse tumor volumes were measured with a digital caliper and weighed twice per week. Tumor volumes were calculated as follows: Tumor Volume (mm^3) [(W^2×L)/2] where width (W) is defined as the smaller of the 2 measurements and length (L) is defined as the larger of the 2 measurements.
(In xenograft studies the graft and the host belong to different species.)

The mark [1] stands for this setting: 4N DNA content, average, read-out: 24h_4N Ploidy EC50_IP (uM Avg).
[2] abbreviates: average, read-out: AurB_IC50_IP (uM Avg).
Setting [3] is: average, read-out: AurA_IC50_IP (uM Avg).

Where two headings read alike, the source gives them in different places.

T1 sequence (Q96GD4 whole entry): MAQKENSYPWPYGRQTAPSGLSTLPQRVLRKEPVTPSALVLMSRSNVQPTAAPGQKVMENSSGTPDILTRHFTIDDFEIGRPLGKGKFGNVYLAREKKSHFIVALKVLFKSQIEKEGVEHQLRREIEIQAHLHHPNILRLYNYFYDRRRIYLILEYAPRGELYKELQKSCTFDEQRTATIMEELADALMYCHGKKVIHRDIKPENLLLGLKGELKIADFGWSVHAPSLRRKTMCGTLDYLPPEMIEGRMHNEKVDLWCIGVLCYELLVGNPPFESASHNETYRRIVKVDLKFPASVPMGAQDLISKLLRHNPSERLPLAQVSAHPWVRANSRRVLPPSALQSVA

As for “4-(4,5-dimethylthiophen-2-yl)-N-(4-(7-methoxy-1,5-naphthyridin-4-yloxy)phenyl)phthalazin-1-amine [Example 34]”, in the experiment with HeLa cells (setting [1]), the EC50 turned out to be 0.062 µM. Moreover, the IC50 on AuroraB (setting [2]) is 0.01 µM; at AuroraA-TPX2 (setting [3]) it was 0.013 µM.

Regarding “4-(4-chlorophenyl)-N-(3-fluoro-4-(4-quinolinyloxy)phenyl)-1-phthalazinamine [compound 244]”, the EC50 with HeLa cells (setting [1]) stood at 0.04 µM. Besides, the IC50 on AuroraB (setting [2]) is 0.003 µM; at AuroraA-TPX2 (setting [3]), 0.048 µM.

Regarding `COc1cnc2c(Oc3ccc(Nc4nnc(-c5ccc(Cl)cc5)c5ccccc45)cc3)ccnc2c1` [Example 160, 4-(4-chlorophenyl)-N-(4-((7-(methyloxy)-1,5-naphthyridin-4-yl)oxy)phenyl)-1-phthalazinamine], the figures for the IC50 at AuroraB (setting [2]) and on AuroraA-TPX2 (setting [3]) were 0.003 µM and 0.007 µM, respectively. Moreover, the “inhibition of tumor growth” value in the experiment with HCT116 xenografts (3.75 mg/kg, 2-day dosing scheduling QD) is listed as roughly 86%.

For `COc1cnc2c(Oc3ccc(Nc4nnc(-c5ccc6c(c5)OCO6)c5ccccc45)cc3)ccnc2c1` [Example 165, 4-(1,3-benzodioxol-5-yl)-N-(4-((7-(methyloxy)-1,5-naphthyridin-4-yl)oxy)phenyl)-1-phthalazinamine], the IC50 at AuroraB (setting [2]) was found to be 0.007 µM; at AuroraA-TPX2 (setting [3]), 0.009 µM. The “inhibition of tumor growth” value with HCT116 xenografts (2.5 mg/kg, 2-day dosing scheduling BID) is given as roughly 63%.

In the case of `Clc1ccc(-c2nnc(Nc3ccc(Oc4ncnc5ccsc45)cc3)c3ccccc23)cc1` [compound 591], the results for the IC50 on AuroraB (setting [2]) and at AuroraA-TPX2 (setting [3]) were 0.005 µM and 0.25 µM, respectively.

For the compound `N#Cc1ccc2nccc(Oc3ccc(Nc4nnc(-c5ccccc5)c5ccccc45)cc3)c2c1` [compound 592], the IC50 on AuroraB (setting [2]) was 0.022 µM; on AuroraA-TPX2 (setting [3]) it was 0.338 µM.

For `COCc1cc(-c2ccccc2)nnc1Nc1ccc(Oc2ccnc3cc(OC)cnc23)cc1` [compound 593], the IC50 on AuroraB (setting [2]) worked out at 0.082 µM; at AuroraA-TPX2 (setting [3]) it was 0.526 µM.

For `CCc1cc(-c2ccc3c(c2)OCO3)nnc1Nc1ccc(Oc2ccnc3cc(OC)cnc23)cc1` [compound 594], the IC50 on AuroraB (setting [2]) is 0.051 µM; at AuroraA-TPX2 (setting [3]), 0.094 µM.

Turning to `CCc1cc(-c2ccc(C)cc2)nnc1Nc1ccc(Nc2ccnc3cc(OC)cnc23)cc1` [compound 595], the IC50 on AuroraB (setting [2]) is 0.023 µM; at AuroraA-TPX2 (setting [3]), 0.102 µM.

Regarding `CCc1cc(-c2ccc(C)cc2)nnc1Nc1ccc(Nc2ccnc3cc(C#N)ccc23)cc1` [compound 596], the IC50 worked out at 0.058 µM at AuroraB (setting [2]) and 0.16 µM at AuroraA-TPX2 (setting [3]).

In the case of `COc1cc2nccc(Sc3ccc(Nc4nnc(-c5ccccc5)c5ccccc45)cc3)c2nc1OC` [compound 597], the IC50 turned out to be 0.681 µM on AuroraB (setting [2]) and 0.246 µM on AuroraA-TPX2 (setting [3]).

With `COc1cc2nccc(Sc3ccc(Nc4nnc(-c5ccc(Cl)cc5)c5ccccc45)cc3)c2nc1OC` [compound 598], the IC50 on AuroraB (setting [2]) stood at 0.595 µM; at AuroraA-TPX2 (setting [3]), 0.135 µM.

Turning to `Brc1cnc2c(Oc3ccc(Nc4nnc(-c5ccccc5)c5ccccc45)cc3)ncnc2c1` [compound 599], the IC50 on AuroraB (setting [2]) stood at 0.256 µM; at AuroraA-TPX2 (setting [3]) it was 0.794 µM.

With `COc1cnc2c(Sc3ccc(Nc4nnc(N5CCN6C[C@H](F)C[C@H]6C5)c5ccccc45)cc3)ccnc2c1` [compound 600], the IC50 amounted to 0.01 µM on AuroraB (setting [2]) and 0.014 µM at AuroraA-TPX2 (setting [3]).

Regarding `COc1cnc2c(Sc3ccc(Nc4nnc(N5CCN6CC(F)(F)C[C@H]6C5)c5ccccc45)cc3)ccnc2c1` [compound 601], the figures for the IC50 on AuroraB (setting [2]) and on AuroraA-TPX2 (setting [3]) were 0.012 µM and 0.021 µM, respectively.

Regarding `COc1cnc2c(Oc3ccc(Nc4nnc(N5CCN6CCCCC[C@@H]6C5)c5ccccc45)cc3)ccnc2c1` [compound 604], the IC50 was determined as 0.013 µM on AuroraB (setting [2]) and 0.027 µM at AuroraA-TPX2 (setting [3]).

For `COc1cnc2c(Sc3ccc(Nc4nnc(N5CCN(S(C)(=O)=O)CC5)c5ccccc45)cc3)ccnc2c1` [compound 605], the IC50 was determined as 0.083 µM at AuroraB (setting [2]) and 0.803 µM on AuroraA-TPX2 (setting [3]).

Consider `COc1cc(OC)c2c(Oc3ccc(Nc4nnc(-c5ccccc5)c5ccccc45)cn3)ncnc2c1` [compound 606], for which the figures for the IC50 on AuroraB (setting [2]) and on AuroraA-TPX2 (setting [3]) were 0.035 µM and greater than 25 µM, respectively.

`COc1cnc2c(Oc3ccc(Nc4nnc(N5CCN(S(C)(=O)=O)CC5)c5ccccc45)cc3)ccnc2c1` [compound 607]: the results for the IC50 on AuroraB (setting [2]) and at AuroraA-TPX2 (setting [3]) were 0.324 µM and 2.82 µM, respectively.

Take `COc1cnc2c(Sc3ccc(Nc4nnc(N5CCN(C(C)=O)CC5)c5ccccc45)cc3)ccnc2c1` [compound 608]: the IC50 on AuroraB (setting [2]) was 0.022 µM; at AuroraA-TPX2 (setting [3]) it was 0.352 µM.

Consider `CCc1cc(-c2ccccc2OC)nnc1Nc1ccc(Sc2ccnc3cc(OC)cnc23)cc1` [compound 609], for which the IC50 on AuroraB (setting [2]) was determined as 0.02 µM; on AuroraA-TPX2 (setting [3]), 0.123 µM.

For `Clc1ccc(-c2nnc(Nc3ccc(Oc4ccnc5cc(OCc6ccccc6)cnc45)cc3)c3ccccc23)cc1` [compound 610], the values for the IC50 at AuroraB (setting [2]) and at AuroraA-TPX2 (setting [3]) were 0.033 µM and 0.047 µM, respectively.

On to `COc1ccc2c(C(C)c3ccc(Nc4nnc(-c5ccc(Cl)cc5)c5ccccc45)cc3)ccnc2c1` (stereo not drawn) [compound 613], for which the IC50 at AuroraB (setting [2]) was 0.243 µM; at AuroraA-TPX2 (setting [3]) it was greater than 25 µM.

With `COc1ccc2c(C(O)c3ccc(Nc4nnc(-c5ccc(Cl)cc5)c5ccccc45)cc3)ccnc2c1` (stereo not drawn) [compound 614], the IC50 was found to be 0.046 µM at AuroraB (setting [2]) and 0.223 µM on AuroraA-TPX2 (setting [3]).

As for `COc1ccc2c(C(=O)c3ccc(Nc4nnc(-c5ccc(Cl)cc5)c5ccccc45)cc3)ccnc2c1` [compound 615], the values for the IC50 at AuroraB (setting [2]) and at AuroraA-TPX2 (setting [3]) were 0.039 µM and 0.3 µM, respectively.

Regarding “(7-(4-(4-(4-methylthiophen-2-yl)phthalazin-1-ylamino)phenylthio)thieno[3,2-b]pyridin-2-yl)(morpholino)methanone [compound 296]”, the EC50 in the experiment on HeLa cells (given as class symbol, read-out: 24h_4N Ploidy EC50_IP (class symbol)) is less than 0.1 µM. The IC50 at AuroraB (given as class symbol, read-out: AurB_IC50_IP (class symbol)) was less than 0.1 µM; at AuroraA-TPX2 (given as class symbol, read-out: AurA_IC50_IP (class symbol)), less than 0.1 µM.

In the case of “N-(5-(7-methoxy-1,5-naphthyridin-4-yloxy)pyridin-2-yl)-4-phenylphthalazin-1-amine [Example 54]”, the EC50 with HeLa cells (setting [1]) was 0.028 µM. Moreover, the IC50 at AuroraB (setting [2]) was 0.02 µM; at AuroraA-TPX2 (setting [3]) it was 0.176 µM.
